# According to US20210315881A1, “COMBINATION OF HISTONE DEACETYLASE INHIBITOR AND PROTEIN KINASE INHIBITOR AND PHARMACEUTICAL USE THEREOF” (SHENZHEN CHIPSCREEN BIOSCIENCES CO., LTD., priority 2018, published 2021):
# Experiments:
# [1] = test system: SMMC-7721 cells; assay: Colony forming assay (crystal violet); type: cell-based; conditions: SMMC-7721, Chiauranib monotreatment 5 μM, 2-3 weeks
# Method: (§1) The SMMC-7721, Bel-7404 cell lines at the log phase stage were digested by trypsin, collected and counted, then seeded in a 6-well cell culture plate at the density of 500 cells/1.8 mL in each well, and cultured at 37° C. under 5% CO2. After cultured overnight, the cells were administered according to the grouping and the final concentration dosages shown in FIG. 2 (the final volume of each well after administration was 2 mL). The culture media and drugs were replaced every 3 days to keep the culture system and the dosage for each well stable.
# After cultured for 2-3 weeks, when there were visible cell colonies in the culture plate, the culture was terminated. The supernatants were discarded, and the plate was washed carefully with PBS twice. 1 mL of 75% ethanol solution was added to each well to fix the cells, and the fixative solution was discarded after 15 min. Then the cells were stained for 15 min by adding 1 mL of crystal violet solution to each well, and the staining solution was washed slowly with running water and air dried. The stained positive cell colonies in each well of the culture plate were photographed to compare their density.
# [2] = test system: Bel-7404 cells; assay: MTS cell viability assay; type: cell-based, human; conditions: Bel-7404, monotreatment, 120 hours, dose-dependent
# Method: (§2) Human hepatoma cell line Bel-7402 and Bel-7404 were purchased from the Cell Resource Center of Shanghai Institutes for Biological Sciences, CAS, and routinely cultured at 37° C. under 5% CO2, in a culture medium of RPMI-1640 (Gibco) containing 10% fetal bovine serum (FBS; Gibco) and 1% Penicillin-Streptomycin (HyClone). Trypsin was purchased from Gibco. Crystal violet, RNase A (10 mg/mL) solution, propidium iodide (PI), Triton X-100 were purchased from Sangon Biotech (Shanghai) Co., Ltd. MTS cell viability assay kits, Caspase-Glo 3/7 assay kits were purchased from Promega. Nude mice were purchased from Guangdong Medical Laboratory Animal Center.
# (§3) The Bel-7402, Bel-7404 cell lines were digested by trypsin, collected and counted, and then seeded in a 96-well cell culture plate at the density of 3,000 cells/180 μL in each well, and cultured at 37° C. under 5% CO2. […] After incubation at 37° C. for about 1 hour, the absorbance of each well was read at 490 nm wavelength with a microplate reader. The OD490-T value of each administered well and the OD490-T0 value of the negative control well after background deduction were obtained by subtracting OD490-BLK from the absorbance reading value of each well.
# (§4) The relative survival rate of the cells in each administered well was calculated according to the following formula: […]
# [3] = test system: Bel-7402 cells; assay: MTS cell viability assay; type: cell-based, human; conditions: Bel-7402, monotreatment, 120 hours, dose-dependent
# Method: as §2, §3, §4
# [4] = test system: Bel-7404 cells; assay: Cell apoptosis by Caspase 3/7 assay; type: cell-based, human; conditions: Bel-7404, 3 μM Chiauranib monotreatment, 48 hours
# Method: as §2
# The cells of Bel-7404 at the log phase stage were digested by trypsin, collected and counted. The cells were seeded in a 96-well plate at density of 2000 cells per well in a total of 18 wells. […]
# The 96-well plates containing the treated cells were taken out of the incubator and equilibrated to room temperature. […] The […] value of each sample was measured by a luminometer. The […] value can directly reflect the proportion of apoptotic cells in each well, and can be used to calculate and compare the cell viability of the different groups.
# [5] = test system: Bel-7404 cells; assay: Cell cycle analysis by flow cytometry with PI staining; type: cell-based, human; conditions: Bel-7404, 3 μM Chiauranib, 48 hours
# Method: as §2
# The cells of Bel-7404 at the log phase stage were digested by trypsin, collected and counted. The cells were seeded in a 6-well plate at the density of 10^6 cells per well in a total of 18 wells. […] The fixed samples were allowed to stand at 4° C. for more than 12 hours, and analyzed by the flow cytometry assay within 1 week.
# PBS, 10 mg/mL PI stock solution, 10 mg/mL RNase A solution and Triton X-100 were mixed at a ratio of 1000:5:2:1 to form a working dye solution. […] The filtrate was analyzed for cell cycles by the flow cytometry assay (each sample counted 20,000 cells).
# [6] = test system: Bel-7404 cells; assay: Colony forming assay (crystal violet); type: cell-based, human; conditions: Bel-7404, Chiauranib monotreatment 3 μM, 2-3 weeks
# Method: as §2, §1
# After cultured for 2-3 weeks, when there were visible cell colonies in the culture plate, the culture was terminated. The supernatants were discarded, and the plate was washed carefully with PBS twice. […]
# [7] = test system: Bel-7404 cell xenograft; assay: Tumor cell xenograft model in nude mice; type: in vivo; conditions: 2.5 mg/kg Chiauranib, intragastrically once a day, 33 days, vs solvent control
# Method: The cells of Bel-7404 were cultured to expend to a large amount, and maintained at a log phase state. After the number of the cells reached the required amount, they were digested with trypsin, collected, washed twice with a large amount of PBS to remove the trypsin and serum, and centrifuged at 800 rpm for 10 min at room temperature and the cell supernatants were discarded. The cells were resuspended in the FBS-free RPIM-1640 culture medium, and adjusted the cell density to 10^7/300 μL.
# Under aseptic conditions, each nude mouse was injected subcutaneously on the back with 300 μL/injection, one injection per nude mouse. A 1 mL disposable medical syringe for injection was used, and the injection site and direction were roughly same for each nude mouse.
# One day after cell implanting, the nude mice were randomly divided into four groups (namely, solvent control group, Chiauranib 2.5 mg/kg group, Chidamide 20 mg/kg group and the combined administration group), housed in separate cages after marked, administered in groups and tumor formation of each mouse was observed every day. […] Every 2 days, the longest diameter of the tumor (length) and the widest diameter (width) perpendicular to the longest diameter were measured with a vernier caliper. The tumor volume was calculated by the formula TS=length×(width)^2/2 and recorded. […]
structure (smiles),measurement,setting,value
COc1ccc2c(Oc3ccc4c(C(=O)Nc5ccccc5N)cccc4c3)ccnc2c1 [Chiauranib],formation of cell colonies,[1],relatively significant effect on the formation of cell colonies
same,inhibitory effect on tumor cell proliferation (survival rate),[2],a certain inhibitory effect on tumor cell proliferation
same,inhibitory effect on tumor cell proliferation (survival rate),[3],a certain inhibitory effect on tumor cell proliferation
same,proportion of apoptotic cells,[4],increased the proportion of apoptotic cells to a certain extent
same,cells in G2/M phase and polyploid cells,[5],slightly increased
same,formation of cell colonies,[6],affected somewhat on the formation of cell colonies
same,tumor volume of tumor-bearing nude mice,[7],inhibited to a certain extent
